Assay results reported in ChEMBL document CHEMBL1156946, “Synthesis and SAR of derivatives based on 2-biarylethylimidazole as bombesin receptor subtype-3 (BRS-3) agonists for the treatment of obesity” (Bioorg Med Chem Lett, 2010).

What was measured:
[1] = target: T1, Bombesin receptor subtype-3 (Mus musculus, UniProt O54798); assay: Agonist activity at mouse BRS-3 expressed in HEK293 cells coexpressing AEQ over 10 mins by aequorin bioluminescence assay; format: functional, cell-based
T1 sequence (O54798 whole entry): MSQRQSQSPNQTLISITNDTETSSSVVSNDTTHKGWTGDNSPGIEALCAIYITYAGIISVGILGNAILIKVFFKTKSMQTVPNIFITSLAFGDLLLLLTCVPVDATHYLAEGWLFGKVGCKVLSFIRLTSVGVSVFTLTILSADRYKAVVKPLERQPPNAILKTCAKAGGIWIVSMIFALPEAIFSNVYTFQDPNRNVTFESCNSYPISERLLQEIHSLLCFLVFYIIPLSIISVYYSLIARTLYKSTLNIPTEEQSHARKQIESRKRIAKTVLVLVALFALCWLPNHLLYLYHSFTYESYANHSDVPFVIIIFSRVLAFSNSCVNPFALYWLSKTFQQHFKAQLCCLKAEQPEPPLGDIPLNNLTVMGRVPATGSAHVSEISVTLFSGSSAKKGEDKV

[2] = target: T2, Bombesin receptor subtype-3 (Homo sapiens, UniProt P32247); assay: biochemical; format: cell-based, CHO
T2 sequence (P32247 whole entry): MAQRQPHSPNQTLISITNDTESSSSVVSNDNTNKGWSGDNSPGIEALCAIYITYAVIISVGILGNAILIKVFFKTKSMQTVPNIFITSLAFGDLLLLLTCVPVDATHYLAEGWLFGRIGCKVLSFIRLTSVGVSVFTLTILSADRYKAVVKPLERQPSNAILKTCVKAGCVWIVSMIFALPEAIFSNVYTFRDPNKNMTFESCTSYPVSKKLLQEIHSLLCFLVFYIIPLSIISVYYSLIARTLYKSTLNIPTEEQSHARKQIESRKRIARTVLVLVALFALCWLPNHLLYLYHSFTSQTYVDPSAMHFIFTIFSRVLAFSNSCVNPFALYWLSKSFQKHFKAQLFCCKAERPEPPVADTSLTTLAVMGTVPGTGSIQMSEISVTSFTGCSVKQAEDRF
Description: Displacement of [125I]D-Tyr6-betaAla11-Phe13-Nle14-bombesin from human BRS-3 expressed in NFAT-CHO cells after 2 hrs by scintillation counting

[3] = Drug level in rat brain at 1 mg/kg, iv after 1 hr; format: ADME, organism-based; set-up: dose 1 mg/kg, route intravenous; details: read-out: Drug uptake
[4] = target: T2, Bombesin receptor subtype-3; assay: Agonist activity at human BRS-3 expressed in HEK293 cells coexpressing AEQ over 10 mins by aequorin bioluminescence assay; format: functional, cell-based
[5] = Drug level in rat plasma at 1 mg/kg, iv after 1 hr; format: ADME, organism-based; set-up: dose 1 mg/kg, route intravenous
[6] = target: T1, Bombesin receptor subtype-3; assay: Agonist activity at mouse BRS-3 expressed in HEK293 cells coexpressing AEQ over 10 mins by aequorin bioluminescence assay relative to D-Tyr6-betaAla11-Phe13-Nle14-bombesin; format: functional, cell-based
[7] = Ratio of drug level in rat brain to plasma at 1 mg/kg, iv after 1 hr; format: ADME, organism-based; set-up: dose 1 mg/kg, route intravenous
[8] = target: T2, Bombesin receptor subtype-3; assay: Agonist activity at human BRS-3 expressed in HEK293 cells coexpressing AEQ over 10 mins by aequorin bioluminescence assay relative to D-Tyr6-betaAla11-Phe13-Nle14-bombesin; format: functional, cell-based

Row | Compound | EC50 [1] [nM] | IC50 [2] [nM] | concentration at 1 h [3] [nM] | EC50 [4] [nM] | concentration at 1 h [5] [nM] | Emax [6] [%] | Kp at 1 h [7] | Emax [8] [%]
1 | CCC(C)(C)Cc1cnc(CCc2ccc(-c3cnsc3)cc2)[nH]1 | 6.9 | 10 | 230 | 44 | 540 | 119 | 0.42 | 100
2 | CCC(C)(C)Cc1cnc(CCc2ccc(-c3csnn3)cc2)[nH]1 | 11 | 45 |  | 538 |  | 109 |  | 104
3 | CCC(C)(C)Cc1c[nH]c(CCc2ccc(-c3cnccn3)cc2)n1 | 11 | 51 |  | 431 |  | 107 |  | 100
4 | CCC(C)(C)Cc1c[nH]c(CCc2ccc(-n3cccn3)cc2)n1 | 9 |  | 20 | 135 | 30 | 113 | 0.67 | 106
5 | CCC(C)(C)Cc1cnc(CCc2ccc(-n3cncn3)cc2)[nH]1 | 12 | 340 | 80 | 570 | 200 | 121 | 0.4 | 89
6 | CCC(C)(C)Cc1cnc(CCc2ccc(-n3ccnn3)cc2)[nH]1 | 57 | 390 |  | 641 |  | 111 |  | 93
7 | CCC(C)(C)Cc1c[nH]c(CCc2ccc(-c3ccccc3C(=O)O)cc2)n1 |  | 11 |  |  |  | 94 |  | 101
8 | CCC(C)(C)Cc1cnc(CCc2ccc(-c3cccnc3C(=O)O)cc2)[nH]1 | 14 | 560 |  | 1260 |  | 97 |  | 95
9 | CCC(C)(C)Cc1c[nH]c(CCc2ccc(-c3cccc(C(=O)O)n3)cc2)n1 | 305 | 2820 |  | 5230 |  | 90 |  | 15
10 | c1ccc(-c2ccc(CCc3nc(CC4CCCC4)c[nH]3)cc2)nc1 | 22 | 177 | 30 | 425 | 39 | 103 | 0.77 | 98
11 | CCC(C)(C)Cc1cnc(CCc2ccc(-c3cccnc3)cc2)[nH]1 | 4.3 | 7.5 |  | 131 |  | 97 |  | 98
12 | CCC(C)(C)Cc1c[nH]c(CCc2ccc(-n3ncnn3)cc2)n1 | 25 | 205 |  | 422 |  | 99 |  | 89
13 | CCC(C)(C)Cc1cnc(CCc2ccc(N3CCCCC3)cc2)[nH]1 | 28 | 28 |  | 171 |  | 133 |  | 108
14 | CCC(C)(C)Cc1cnc(CCc2ccc(-c3ccncc3)cc2)[nH]1 | 15 | 101 |  | 305 |  | 103 |  | 95
15 | CCC(C)(C)Cc1c[nH]c(CCc2ccc(-c3cccc(C)n3)cc2)n1 | 19 |  |  | 105 |  | 106 |  | 102
16 | CCC(C)(C)Cc1c[nH]c(CCc2ccc(-c3cccc(N)n3)cc2)n1 | 3.9 | 7.3 |  | 37 |  | 119 |  | 97
17 | O=C(O)c1cc(F)c(F)cc1-c1ccc(CCc2nc(CC3CCCCC3)c[nH]2)cc1 | 4.7 | 36 |  | 63 |  | 96 |  | 103
18 | CCC(C)(C)Cc1c[nH]c(CCc2ccc(-c3cccc(O)n3)cc2)n1 | 11 | 51 |  | 169 |  | 91 |  | 100
19 | CCC(C)(C)Cc1cnc(CCc2ccc(-c3cccc(C#N)n3)cc2)[nH]1 | 26 | 140 |  | 193 |  | 115 |  | 95
20 | CCC(C)(C)Cc1cnc(CCc2ccc(-c3ccc(F)cn3)cc2)[nH]1 | 16 | 19 |  | 66 |  | 105 |  | 97
21 | CCC(C)(C)Cc1c[nH]c(CCc2ccc(-c3ccns3)cc2)n1 | 3.1 | 11 |  | 63 |  | 103 |  | 102
